Experimental data reported in PubChem BioAssay (NCI).
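The compound was tested at five concentrations on cells cultured in 96-well plates, with a 48-hour exposure period. The concentration for 50% growth inhibition is given as GI50. TGI is the concentration that stops growth completely.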

Legend:
Experiment in all cases: inhibition of tumour cell growth, NCI panel, 48 h
DU-145 prostate = tested on: DU-145 prostate
A549 NSCLC = tested on: A549 NSCLC
OVCAR-8 ovarian = tested on: OVCAR-8 ovarian
ACHN renal = tested on: ACHN renal
SNB-75 CNS = tested on: SNB-75 CNS
HT29 colon = tested on: HT29 colon
KM12 colon = tested on: KM12 colon
MALME-3M melanoma = tested on: MALME-3M melanoma
LOX IMVI melanoma = tested on: LOX IMVI melanoma
NCI-H460 lung = tested on: NCI-H460 lung

Row | SMILES | TGI (DU-145 prostate) [µM] | TGI (A549 NSCLC) [µM] | TGI (OVCAR-8 ovarian) [µM] | TGI (ACHN renal) [µM] | TGI (SNB-75 CNS) [µM] | TGI (HT29 colon) [µM] | TGI (KM12 colon) [µM] | TGI (MALME-3M melanoma) [µM] | TGI (LOX IMVI melanoma) [µM] | TGI (NCI-H460 lung) [µM] | GI50 (DU-145 prostate) [µM] | GI50 (A549 NSCLC) [µM] | GI50 (OVCAR-8 ovarian) [µM] | GI50 (ACHN renal) [µM] | GI50 (SNB-75 CNS) [µM] | GI50 (HT29 colon) [µM] | GI50 (KM12 colon) [µM] | GI50 (MALME-3M melanoma) [µM] | GI50 (LOX IMVI melanoma) [µM] | GI50 (NCI-H460 lung) [µM]
1 | COc1cc(OC)c(C/C=C/c2ccccc2)cc1O | 31.5 | 46.6 | 32.8 | 72.3 | 33.9 | 31.5 | 31.5 | 30.5 | 29.4 | 31 | – | – | – | – | – | – | – | – | – | –
2 | C#CC#CC#CC#CC#CC#CC#CC#CCC1OCC(COC(=O)O[C@@H](C(=O)O[C@H]2C[C@@]3(O)[C@@H](OC(=O)c4ccccc4)[C@@H]4[C@]5(OC(C)=O)CO[C@@H]5C[C@H](O)[C@@]4(C)C(=O)[C@H](OC(C)=O)C(=C2C)C3(C)C)[C@@H](NC(=O)c2ccccc2)c2ccccc2)O1 (stereo partly drawn) | – | > 33.3 | > 33.3 | > 33.3 | 0.189 | > 33.3 | > 33.3 | > 33.3 | > 33.3 | > 33.3 | 0.0961 | 0.175 | 0.187 | > 24.7 | 0.0244 | 0.0387 | 0.0986 | 0.28 | 0.0275 | 0.0426
3 | O=c1cnn(C2OC(CO)C(O)C2O)c(=S)[nH]1 (stereo not drawn) | > 100 | > 100 | > 100 | > 100 | > 100 | > 100 | > 100 | > 100 | > 68.5 | > 41.7 | – | – | – | – | – | – | – | – | – | –
4 | CC1CCC/C1=C(/I)C(=O)c1ccccc1 (stereo not drawn) | > 100 | > 100 | > 100 | > 100 | 85 | > 100 | > 100 | > 100 | 92.7 | > 100 | – | – | – | – | – | – | – | – | – | –
5 | COc1ccc2c(c1)c(CC(=O)[Se]C)c(C)n2C(=O)c1ccc(Cl)cc1 | > 0.807 | > 0.603 | > 0.733 | > 1 | > 0.238 | > 1 | > 1 | > 0.582 | > 0.528 | > 1 | > 0.423 | > 0.283 | > 0.346 | > 0.56 | – | > 0.223 | > 0.577 | > 0.346 | > 0.203 | > 0.304
6 | CC1=NN(C(=O)c2ccccc2O)C(=O)/C1=C/c1ccc(O)cc1 | > 100 | > 100 | > 100 | > 100 | > 100 | > 100 | > 100 | > 100 | > 82.1 | > 100 | – | – | – | – | – | – | – | – | – | –
7 | O=C(/C=C/Sc1cc(C(F)(F)F)cc(C(F)(F)F)c1)c1ccc(Cl)cc1 | 25.1 | 32.8 | 45.3 | 3.36 | 25.7 | 23.9 | 27.8 | 23.4 | 2.73 | 36.6 | 12.3 | 16.1 | 9.9 | 1.78 | 12.8 | 6.93 | 13.5 | 9.13 | 1.43 | 16.6
8 | N#C/C(=C\c1ccsc1)c1nc2ccccc2o1 | > 100 | > 100 | > 100 | > 100 | 65.5 | > 100 | > 100 | > 100 | > 100 | > 100 | 84.6 | > 100 | > 100 | 45.2 | 24.5 | > 100 | > 100 | 45.2 | > 100 | > 100
9 | Cc1cc([N+](=O)[O-])c(NS(=O)(=O)c2cccc(C(=O)O)c2)cc1-c1cccnc1 | > 100 | > 100 | > 100 | > 100 | > 100 | > 100 | > 100 | > 100 | > 100 | > 100 | > 100 | > 100 | > 100 | > 100 | > 100 | > 100 | 35.1 | > 100 | > 100 | > 100
10 | COc1cccc(-c2c[nH]c3c(N/N=C/c4ccncc4)ncnc23)c1 | > 15.2 | 10.1 | 11.8 | > 22.9 | 6.78 | 8.9 | 4.9 | 20.9 | 6.73 | 5.89 | 2.23 | 2.67 | 2.57 | 1.37 | 1.47 | 1.58 | 1.41 | 8.58 | 1.27 | 1.4
